Test results as given in patent US20110130405A1, “SUBSTITUTED QUINAZOLINES AS BLOOD PLATELET LOWERING AGENTS” (Shire LLC, priority 2008, published 2011).

Experiments:
[1] = tested on: human megakaryocytopoiesis; conditions: cited from earlier work
[2] = tested on: human phosphodiesterase III (PDE III); assay: PDE III inhibition; format: biochemical; conditions: more potent than anagrelide
Excerpt: In early volunteer trials, the most frequently reported adverse effects AEs other than headache were palpitations, postural dizziness and nausea. During patient studies, the most frequently reported drug-related AEs were headache, palpitations, oedema/fluid retention, nausea/vomiting, diarrhea, dizziness and abdominal pain. These effects are all likely to arise from the secondary, cardiovascular pharmacology associated with anagrelide resulting from its inhibitory effects on human phosphodiesterase III (PDE III). […] Inhibition of myocardial PDE III leads to positive inotropy (increasing of the force of contractions of the heart), increased chronotropy (increase in heart rate), and peripheral vasodilatation. Such cardiovascular manifestations of this inhibition are typically seen with the classical positive inotropes, milrinone and enoximone, and exploited in the short-term acute treatment of congestive heart failure. However, in the treatment of a so-called silent disease (i.e., asymptomatic) such as ET, the cardiovascular side-effects of palpitations and tachycardia associated with anagrelide limit its utility and a significant proportion of patients—reportedly between 25 and 50%—fail to tolerate the drug during long term treatment.

[3] = human; cited from earlier work
[4] = pharmacokinetics in humans; format: in vivo, human; conditions: after anagrelide treatment
Excerpt: The metabolism of anagrelide generally proceeds extremely rapidly, resulting in a less than ideal pharmacokinetic profile of the drug. […] This, combined with the side-effects profile, can lead to poor patient compliance. Furthermore, anagrelide undergoes a large first pass effect (>50%) leading to considerable intersubject variation in achieved exposures and, therefore, potentially variable drug response. Also, exposure to the pharmacologically active metabolite varies dramatically between patients since its formation is dependent on CYP1A, an enzyme whose expression is highly dependent on exposure to inducing agents such as cigarette smoke. Overall, this may result in the need for careful dose titration in patients being treated with anagrelide.

[5] = tested on: erythroid or myelomonocytic differentiation; conditions: stimulated by erythropoietin or granulocyte-macrophage colony-stimulating factor; cited from earlier work
[6] = biological target: human phosphodiesterase III (PDE III); conditions: cited from earlier work

potency as PDE III inhibitor relative to anagrelide [2] | in vivo exposure relative to parent drug [4] | Compound | potency of inhibition of megakaryocytopoiesis relative to parent drug ([1]; compared with anagrelide) | typical half-life [3] [h] | effect on erythroid or myelomonocytic differentiation [5] | IC50 ([1]; in vitro, dose-dependent, read-out: estimated IC50, inhibition of TPO-induced megakaryocytopoiesis) [nM] | first pass effect [3] [%] | IC50 [6] [nM]
over 40 fold | 2-3 fold | O=C1NC2=Nc3ccc(Cl)c(Cl)c3CN2C1O (stereo not drawn) [3-hydroxyanagrelide] | no more potent than the parent drug | 2.5 |  |  |  | 
 |  | O=C1CN2Cc3c(ccc(Cl)c3Cl)N=C2N1 [Anagrelide, 6,7-dichloro-1,5-dihydroimidazo[2,1-b]-quinazolin-2(3H)-one] |  |  | does not affect | ~26 | > 50 | ~29
 |  | Cc1[nH]c(=O)c(C#N)cc1-c1ccncc1 [milrinone] |  |  |  |  |  | 170 to 350
